According to ChEMBL document CHEMBL1201861, “Genomics of Drug Sensitity in Cancer screening data, Wellcome Trust Sanger Institute”:

Tests used:
Assay in all cases: cells
[1] = test system: CTV-1; assay type: functional, cell-based; details: Homo sapiens;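 further: growth inhibition of the cell line, read out with a cell viability assay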
Description: SANGER: Inhibition of human CTV-1 cell growth in a cell viability assay.

[2] = test system: DK-MG; assay type: functional, cell-based, Homo sapiens; details: Homo sapiens, DK-MG;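 further: growth inhibition of DK-MG cells, read out with a cell viability assay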
Description: SANGER: Inhibition of human DK-MG cell growth in a cell viability assay.

[3] = test system: DOK; assay type: functional, cell-based, Homo sapiens; details: Homo sapiens, DOK;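 further: cell viability assay read-out, values reflect inhibition of cell growth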
Description: SANGER: Inhibition of human DOK cell growth in a cell viability assay.

[4] = test system: G-402; assay type: functional, cell-based, Homo sapiens; details: Homo sapiens, G-402
Description: SANGER: Inhibition of human G-402 cell growth in a cell viability assay.

[5] = test system: GCT; assay type: functional, cell-based, Homo sapiens; details: Homo sapiens, GCT;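 further: GCT cell line proliferation inhibition, read out with a cell viability assay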
Description: SANGER: Inhibition of human GCT cell growth in a cell viability assay.

[6] = test system: H4; assay type: functional, cell-based; details: Homo sapiens
Description: SANGER: Inhibition of human H4 cell growth in a cell viability assay.

[7] = test system: HAL-01; assay type: functional, cell-based; details: Homo sapiens;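 further: growth inhibition of human HAL-01 cells, read out with a cell viability assay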
Description: SANGER: Inhibition of human HAL-01 cell growth in a cell viability assay.

[8] = test system: HCC1395; assay type: functional, cell-based, Homo sapiens; details: Homo sapiens, HCC1395;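 further: growth inhibition of HCC1395 cells, read out by a cell viability assay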
Description: SANGER: Inhibition of human HCC1395 cell growth in a cell viability assay.

[9] = test system: HCC1806; assay type: functional, cell-based, Homo sapiens; details: Homo sapiens, HCC1806;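 further: growth inhibition of the cancer cell line, determined with a cell viability assay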
Description: SANGER: Inhibition of human HCC1806 cell growth in a cell viability assay.

[10] = test system: HH; assay type: functional, cell-based; details: Homo sapiens
Description: SANGER: Inhibition of human HH cell growth in a cell viability assay.

[11] = test system: HuCCT-1; assay type: functional, cell-based, Homo sapiens, HuCCT1; details: Homo sapiens, HuCCT-1;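 further: growth inhibition of HuCCT-1 cells, read out by a cell viability assay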
Description: SANGER: Inhibition of human HuCCT1 cell growth in a cell viability assay.

[12] = test system: HuP-T4; assay type: functional, cell-based, Homo sapiens; details: Homo sapiens, HuP-T4;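 further: cell viability assay measuring how much HuP-T4 cell growth is inhibited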
Description: SANGER: Inhibition of human HuP-T4 cell growth in a cell viability assay.

[13] = test system: IA-LM; assay type: functional, cell-based, Homo sapiens; details: Homo sapiens, IA-LM;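 further: cell viability assay measuring growth inhibition of human IA-LM cells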
Description: SANGER: Inhibition of human IA-LM cell growth in a cell viability assay.

[14] = test system: IST-SL1; assay type: functional, cell-based, Homo sapiens; details: Homo sapiens, IST-SL1;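 further: growth inhibition of human IST-SL1 cells, read out with a cell viability assay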
Description: SANGER: Inhibition of human IST-SL1 cell growth in a cell viability assay.

[15] = test system: JAR; assay type: functional, cell-based, Homo sapiens; details: Homo sapiens, JAR;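 further: growth inhibition of human JAR cells determined with a cell viability assay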
Description: SANGER: Inhibition of human JAR cell growth in a cell viability assay.

[16] = test system: KARPAS-299; assay type: functional, cell-based; details: Homo sapiens
Description: SANGER: Inhibition of human KARPAS-299 cell growth in a cell viability assay.

[17] = test system: KM-H2; assay type: functional, cell-based; details: Homo sapiens;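 further: growth inhibition of KM-H2 cells, read out by a cell viability assay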
Description: SANGER: Inhibition of human KM-H2 cell growth in a cell viability assay.

[18] = test system: KM12; assay type: functional, cell-based, Homo sapiens; details: Homo sapiens, KM12;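 further: KM12 cell growth inhibition, read out with a cell viability assay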
Description: SANGER: Inhibition of human KM12 cell growth in a cell viability assay.

[19] = test system: KOSC-2; assay type: functional, cell-based, Homo sapiens; details: Homo sapiens, KOSC-2;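 further: growth inhibition of KOSC-2 cells, read out by a cell viability assay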
Description: SANGER: Inhibition of human KOSC-2 cell growth in a cell viability assay.

[20] = test system: KS-1; assay type: functional, cell-based, Homo sapiens; details: Homo sapiens, KS-1;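 further: growth inhibition of KS-1 cells, read out with a cell viability assay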
Description: SANGER: Inhibition of human KS-1 cell growth in a cell viability assay.

[21] = test system: KU812 cell line; assay type: functional, cell-based; details: Homo sapiens;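 further: growth inhibition of KU812 cells, read out with a cell viability assay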
Description: SANGER: Inhibition of human KU812 cell growth in a cell viability assay.

[22] = test system: LAMA-84; assay type: functional, cell-based; details: Homo sapiens;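 further: growth inhibition of LAMA-84 cells, read out with a cell viability assay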
Description: SANGER: Inhibition of human LAMA-84 cell growth in a cell viability assay.

[23] = test system: LS-411N; assay type: functional, cell-based, Homo sapiens; details: Homo sapiens, LS-411N
[24] = test system: MC116; assay type: functional, cell-based; details: Homo sapiens;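 further: growth inhibition of MC116 cells, read out with a cell viability assay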
Description: SANGER: Inhibition of human MC116 cell growth in a cell viability assay.

[25] = test system: MEL-HO; assay type: functional, cell-based, Homo sapiens; details: Homo sapiens, MEL-HO
Description: SANGER: Inhibition of human MEL-HO cell growth in a cell viability assay.

[26] = test system: MFM-223; assay type: functional, cell-based, Homo sapiens; details: Homo sapiens, MFM-223
Description: SANGER: Inhibition of human MFM-223 cell growth in a cell viability assay.

[27] = test system: MG-63; assay type: functional, cell-based, Homo sapiens; details: Homo sapiens, MG-63;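 further: growth inhibition of human MG-63 cells, read out with a cell viability assay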
Description: SANGER: Inhibition of human MG-63 cell growth in a cell viability assay.

[28] = test system: NB7; assay type: functional, cell-based; details: Homo sapiens;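 further: growth inhibition of NB7 cells, read out with a cell viability assay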
Description: SANGER: Inhibition of human NB7 cell growth in a cell viability assay.

[29] = test system: NCI-H1581; assay type: functional, cell-based, Homo sapiens; details: Homo sapiens, NCI-H1581;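 further: cell growth inhibition read out by a viability assay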
Description: SANGER: Inhibition of human NCI-H1581 cell growth in a cell viability assay.

[30] = test system: NCI-H727; assay type: functional, cell-based, Homo sapiens; details: Homo sapiens, NCI-H727;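 further: growth inhibition of human NCI-H727 cells, read out with a cell viability assay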
Description: SANGER: Inhibition of human NCI-H727 cell growth in a cell viability assay.

[31] = test system: NTERA-2-cl-D1; assay type: functional, cell-based, Homo sapiens; details: Homo sapiens, NTERA-2-cl-D1;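 further: inhibition of cell growth, measured with a cell viability assay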
Description: SANGER: Inhibition of human NTERA-S-cl-D1 cell growth in a cell viability assay.

[32] = test system: OCI-AML2; assay type: functional, cell-based; details: Homo sapiens;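 further: growth inhibition of OCI-AML2 cells, read out with a cell viability assay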
Description: SANGER: Inhibition of human OCI-AML2 cell growth in a cell viability assay.

[33] = test system: OMC-1; assay type: functional, cell-based, Homo sapiens; details: Homo sapiens, OMC-1;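 further: growth inhibition of the OMC-1 cell line, measured by a cell viability assay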
Description: SANGER: Inhibition of human OMC-1 cell growth in a cell viability assay.

[34] = test system: OVCAR-4; assay type: functional, cell-based, Homo sapiens; details: Homo sapiens, OVCAR-4;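 further: growth inhibition of human OVCAR-4 cells, measured with a cell viability assay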
Description: SANGER: Inhibition of human OVCAR-4 cell growth in a cell viability assay.

[35] = test system: RPMI-7951; assay type: functional, cell-based, Homo sapiens; details: Homo sapiens, RPMI-7951
Description: SANGER: Inhibition of human RPMI-7951 cell growth in a cell viability assay.

[36] = test system: RT-112; assay type: functional, cell-based, Homo sapiens; details: Homo sapiens, RT-112
Description: SANGER: Inhibition of human RT-112 cell growth in a cell viability assay.

[37] = test system: SK-NEP-1; assay type: functional, cell-based; details: Homo sapiens;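 further: growth inhibition of human SK-NEP-1 cells, read out by a cell viability assay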
Description: SANGER: Inhibition of human SK-NEP-1 cell growth in a cell viability assay.

[38] = test system: SK-OV-3; assay type: functional, cell-based, Homo sapiens; details: Homo sapiens, SK-OV-3;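 further: growth inhibition of SK-OV-3 human cells, read out with a cell viability assay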
Description: SANGER: Inhibition of human SK-OV-3 cell growth in a cell viability assay.

[39] = test system: SW1783; assay type: functional, cell-based; details: Homo sapiens;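 further: cell growth inhibition measured with a viability assay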
Description: SANGER: Inhibition of human SW1783 cell growth in a cell viability assay.

[40] = test system: 697; assay type: functional, cell-based; details: Homo sapiens
Description: SANGER: Inhibition of human 697 cell growth in a cell viability assay.

[41] = test system: A204; assay type: functional, cell-based, Homo sapiens; details: Homo sapiens, A204;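 further: growth inhibition of human A204 cells, read out with a cell viability assay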
Description: SANGER: Inhibition of human A204 cell growth in a cell viability assay.

[42] = test system: A-375; assay type: functional, cell-based, Homo sapiens; details: Homo sapiens, A-375;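 further: growth inhibition of A375 cells, read out with a cell viability assay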
Description: SANGER: Inhibition of human A375 cell growth in a cell viability assay.

[43] = test system: A-431; assay type: functional, cell-based, Homo sapiens; details: Homo sapiens, A-431;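 further: growth inhibition of A-431 cells, determined with a cell viability read-out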
Description: SANGER: Inhibition of human A431 cell growth in a cell viability assay.

[44] = test system: BE-13; assay type: functional, cell-based; details: Homo sapiens;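 further: growth inhibition of human BE-13 cells, measured with a cell viability assay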
Description: SANGER: Inhibition of human BE-13 cell growth in a cell viability assay.

[45] = test system: BEN; assay type: functional, cell-based, Homo sapiens; details: Homo sapiens, BEN;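 further: growth inhibition of the BEN cell line, read out with a cell viability assay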
Description: SANGER: Inhibition of human BEN cell growth in a cell viability assay.

[46] = test system: BFTC-905; assay type: functional, cell-based, Homo sapiens; details: Homo sapiens, BFTC-905
Description: SANGER: Inhibition of human BFTC-905 cell growth in a cell viability assay.

[47] = test system: CAL-33; assay type: functional, cell-based, Homo sapiens; details: Homo sapiens, CAL-33;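 further: growth inhibition of CAL-33 cells, read out with a cell viability assay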
Description: SANGER: Inhibition of human CAL-33 cell growth in a cell viability assay.

[48] = test system: CAL-85-1; assay type: functional, cell-based; details: Homo sapiens;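 further: growth inhibition of human CAL-85-1 cells, read out with a cell viability assay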
Description: SANGER: Inhibition of human CAL-85-1 cell growth in a cell viability assay.

[49] = test system: TE-10; assay type: functional, cell-based, Homo sapiens; details: Homo sapiens, TE-10;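 further: growth inhibition of TE-10 cells, measured by a cell viability assay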
Description: SANGER: Inhibition of human TE-10 cell growth in a cell viability assay.

[50] = test system: U-87 MG; assay type: functional, cell-based, U-87MG ATCC; details: Homo sapiens;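 further: growth inhibition of the cells measured with a viability assay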
Description: SANGER: Inhibition of human U-87-MG cell growth in a cell viability assay.

[51] = test system: UO-31; assay type: functional, cell-based; details: Homo sapiens;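 further: cell viability assay measuring inhibition of cell growth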
Description: SANGER: Inhibition of human U031 cell growth in a cell viability assay.

[52] = test system: UACC-257; assay type: functional, cell-based, Homo sapiens; details: Homo sapiens, UACC-257
Description: SANGER: Inhibition of human UACC-257 cell growth in a cell viability assay.

[53] = test system: CAMA-1; assay type: functional, cell-based, Homo sapiens; details: Homo sapiens, CAMA-1;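 further: growth inhibition of CAMA-1 cells, read out with a cell viability assay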
Description: SANGER: Inhibition of human CAMA-1 cell growth in a cell viability assay.

With `CC(=O)O[C@@]12CO[C@@H]1C[C@H](O)[C@@]1(C)C(=O)[C@H](O)C3=C(C)[C@@H](OC(=O)[C@H](O)[C@@H](NC(=O)OC(C)(C)C)c4ccccc4)C[C@@](O)([C@@H](OC(=O)c4ccccc4)[C@H]21)C3(C)C` [DOCETAXEL] the IC50 [1] was 3.37 nM, the IC50 [2] was 8.6 nM and the IC50 [3] was 2.94 nM. It also gave an IC50 [4] of 0.706 nM, an IC50 [5] of 1.8 nM and an IC50 [6] of 1.96 nM. It also gave an IC50 [7] greater than 10 nM, an IC50 [8] greater than 10 nM and an IC50 [9] of 1.18 nM. The IC50 [10] was greater than 10 nM, the IC50 [11] was 5.68 nM and the IC50 [12] was 6.79 nM. For the same molecule, the IC50 [13] was greater than 10 nM, the IC50 [14] was 3.12 nM and the IC50 [15] was 4.37 nM. The IC50 [16] was greater than 10 nM, the IC50 [17] was greater than 10 nM and the IC50 [18] was 4.08 nM. For the same molecule, the IC50 [19] was 0.255 nM, the IC50 [20] was 1.44 nM and the IC50 [21] was greater than 10 nM. For the same molecule, the IC50 [22] was greater than 10 nM, the IC50 [23] was 3.14 nM and the IC50 [24] was greater than 10 nM. It also gave an IC50 [25] greater than 10 nM, an IC50 [26] of 6.16 nM and an IC50 [27] of 1.51 nM. It also gave an IC50 [28] greater than 10 nM, an IC50 [29] of 2.17 nM and an IC50 [30] greater than 10 nM. It also gave an IC50 [31] of 0.773 nM, an IC50 [32] greater than 10 nM and an IC50 [33] of 9.06 nM. It also gave an IC50 [34] of 5.86 nM, an IC50 [35] of 0.448 nM and an IC50 [36] of 1.19 nM. For the same molecule, the IC50 [37] was 1.76 nM, the IC50 [38] was greater than 10 nM and the IC50 [39] was 5.7 nM. It also gave an IC50 [40] of 1.72 nM, an IC50 [41] of 9.34 nM and an IC50 [42] of 1.21 nM. For the same molecule, the IC50 [43] was greater than 10 nM, the IC50 [44] was 3.93 nM and the IC50 [45] was greater than 10 nM. It also gave an IC50 [46] of 0.268 nM, an IC50 [47] of 1.04 nM and an IC50 [48] greater than 10 nM. The IC50 [49] was 2.54 nM, the IC50 [50] was 3.55 nM and the IC50 [51] was 3.07 nM. It also gave an IC50 [52] greater than 10 nM and an IC50 [53] of 1.31 nM.

`COc1ccc(C2=N[C@@H](c3ccc(Cl)cc3)[C@@H](c3ccc(Cl)cc3)N2C(=O)N2CCNC(=O)C2)c(OC(C)C)c1` [NUTLIN-3] was tested, and the IC50 [1] was 4080 nM, the IC50 [2] was 2620 nM and the IC50 [3] was greater than 8000 nM. The IC50 [4] was 3810 nM, the IC50 [5] was greater than 8000 nM and the IC50 [6] was 663 nM. It also gave an IC50 [7] greater than 8000 nM, an IC50 [8] greater than 8000 nM and an IC50 [9] greater than 8000 nM. The IC50 [10] was greater than 8000 nM, the IC50 [11] was greater than 8000 nM and the IC50 [12] was greater than 8000 nM. For the same molecule, the IC50 [13] was greater than 8000 nM, the IC50 [14] was greater than 8000 nM and the IC50 [15] was greater than 8000 nM. The IC50 [16] was greater than 8000 nM, the IC50 [17] was 7890 nM and the IC50 [18] was greater than 8000 nM. For the same molecule, the IC50 [19] was greater than 8000 nM, the IC50 [20] was 3020 nM and the IC50 [21] was greater than 8000 nM. The IC50 [22] was greater than 8000 nM, the IC50 [23] was greater than 8000 nM and the IC50 [24] was greater than 8000 nM. The IC50 [25] was 5860 nM, the IC50 [26] was greater than 8000 nM and the IC50 [27] was greater than 8000 nM. It also gave an IC50 [28] greater than 8000 nM, an IC50 [29] greater than 8000 nM and an IC50 [30] greater than 8000 nM. For the same molecule, the IC50 [31] was greater than 8000 nM, the IC50 [32] was greater than 8000 nM and the IC50 [33] was greater than 8000 nM. It also gave an IC50 [34] greater than 8000 nM, an IC50 [35] greater than 8000 nM and an IC50 [36] greater than 8000 nM. For the same molecule, the IC50 [37] was greater than 8000 nM, the IC50 [38] was greater than 8000 nM and the IC50 [39] was greater than 8000 nM. For the same molecule, the IC50 [40] was 5450 nM, the IC50 [41] was 3060 nM and the IC50 [42] was 4340 nM. The IC50 [43] was greater than 8000 nM, the IC50 [44] was greater than 8000 nM and the IC50 [45] was greater than 8000 nM. For the same molecule, the IC50 [46] was greater than 8000 nM, the IC50 [47] was greater than 8000 nM and the IC50 [48] was greater than 8000 nM. For the same molecule, the IC50 [49] was greater than 8000 nM, the IC50 [50] was greater than 8000 nM and the IC50 [51] was greater than 8000 nM. The IC50 [52] was greater than 8000 nM and the IC50 [53] was greater than 8000 nM.
